“Also recorded” adds a separate entry of the source.

The test system of data set [1] is liver triglycerides. Description: Liver triglycerides, chronic exposure in ob/ob mice. The format is in vivo. As to conditions: for Liver Trigs: CMC suspension. As to the method: Sections of liver were removed and frozen. Liver triglycerides were analyzed following lipid extraction by the Bligh Dyer method (Bligh and Dyer, Can. J. Med. Sci. 37(8):911-7 (1959), incorporated herein by reference). Total triglycerides were analyzed in the liver extracts by an enzymatic assay (Thermo Electron Corporation). Total lipid was normalized to initial liver weight and triglyceride content was normalized to liver weight mGPDH activity was analyzed in isolated mitochondria using 2-(4-iodophenyl)-3-(4-nitrophenyl)-5-phenyl tetrazolium chloride as the terminal electron acceptor (Gardner R S, Analytical Biochemistry 59:272 (1974)). Commercially available GPDH was used in each assay as a standard (Sigma, St. Louis, Mo.).
The purpose of these studies was to compare the difference in efficacy to clear liver triglyceride content between Compound cis-13-1 and T3 in ob/ob mice.
(§1) Methods: ob/ob mice were maintained on a standard diet. Compound cis-13-1 was administered at doses of 3, 10 and 30 mg/kg/d orally in a CMC suspension. T3, 100 nmole/kg/d, was administered as an aqueous solution subcutaneously. Liver triglycerides were analyzed as described in example A. Epididymal fat pads were removed and weighed. Clinical chemistry analysis was performed by LabCorp (San Diego, Calif.).

A short description of data set [2]: Epididymal fat pad weight in ob/ob mice. The format is in vivo. To be noted: for EFP weight: CMC suspension. On the procedure: as §1
The subject of data set [3] is ALT. Description: ALT levels (clinical chemistry) in ob/ob mice. The format is in vivo. As to conditions: 9 weeks of treatment, from 634 IU/L in the vehicle treated group. As to the method:
as §1

In data set [4] the test system is hepatic steatosis. Description: Hepatic steatosis measured chemically and histologically in ob/ob mice. The class given is in vivo. To be noted: oral administration of cis-13-1. As to the method: as §1
Data set [5] has as its system hepatic steatosis. Description: Liver steatosis (H&E sections) in ZDF rats. The class given is in vivo, Zucker diabetic fatty (ZDF) rats. To be noted: oral, CMC suspension. On the procedure: (§2) Methods: ZDF rats were maintained on a standard diet (5008). Compounds cis-13-1 or 18 were administered orally at the indicated doses using a CMC suspension. Liver steatosis was analyzed visually following H&E staining of paraffin embedded liver sections. TSH was measured using a rodent specific kit (Amersham Biosciences). At the end of the experiment, the left ventricle was cannulated with a high fidelity catheter-tip transducer (Millar) via the right carotid artery. Left ventricle pressure, its first derivative (LV dP/dt), lead I ECG, and heart rate triggered off the ECG waveform, were recorded.

For data set [6], the system named is TSH. The data set can be described thus: TSH in ZDF rats. The format is in vivo, Zucker diabetic fatty (ZDF) rats. To be noted: 4 weeks of treatment. As to the method: as §2
Data set [7] in a line: Heart rate and cardiovascular parameters in ZDF rats. The class given is in vivo, Zucker diabetic fatty (ZDF) rats. As to conditions: end of experiment. As to the method:
as §2

The test system of data set [8] is hepatic steatosis. The data set can be described thus: Liver steatosis (H&E sections) in DIO mice. To be noted: DIO mice (60% Kcal from fat diet); 30 mg/kg/d orally, CMC suspension, 10 weeks. The format is in vivo, diet induced obesity (DIO) mice. On the procedure:
The purpose of these studies was to compare the ability of Compound cis-13-1 to clear liver steatosis in diet induced obesity (DIO) mice. Methods: […] mice were maintained on a 60% Kcal from fat diet. Compound cis-13-1 was administered at doses of 30 mg/kg/d orally in a CMC suspension for 10 weeks. Liver steatosis was analyzed visually following H&E staining of paraffin embedded liver sections. TSH was measured using a rodent specific kit (Amersham Biosciences). Heart rates were measured using a Lead I ECG with the heart rate calculated from the ECG waveform.

Data set [9] concerns mitochondria. Description: Ultrastructure of mitochondria in DIO mice. The format is in vivo, diet induced obesity (DIO) mice. To be noted: 30 mg/kg/d orally, 10 weeks. As to the method:
(§3) Methods: C571316 mice were maintained on a 60% Kcal from fat diet. Compound cis-13-1 was administered at doses of 30 mg/kg/d orally in a CMC suspension for 10 weeks. Liver steatosis was analyzed visually following H&E staining of paraffin embedded liver sections. TSH was measured using a rodent specific kit (Amersham Biosciences). Heart rates were measured using a Lead I ECG with the heart rate calculated from the ECG waveform.

Data set [10] deals with TSH. Description: TSH in DIO mice. The class given is in vivo, diet induced obesity (DIO) mice. To be noted: 10 weeks of treatment. As to the method: as §3
The nature of data set [11]: Heart rate (Lead I ECG) in DIO mice. As to conditions: 30 mg/kg/d orally, 10 weeks. The format is in vivo, diet induced obesity (DIO) mice. On the procedure:
as §3

The subject of data set [12] is CPT-1. Description: Liver gene expression (real-time PCR) in normal mice. The class given is in vivo. To be noted: normal C57Bl6 mice; 30 mg/kg/d orally, CMC suspension, 1 week; liver mRNA. On the procedure:
The purpose of these studies was to compare the ability of Compound cis-13-1 to change liver gene expression.
Methods: C57Bl6 mice were maintained on a normal rodent diet. Compound cis-13-1 was administered at doses of 30 mg/kg/d orally in a CMC suspension for 1 week. Changes in levels of mRNA for liver and heart genes are analyzed using reverse transcriptase followed by real-time PCR analysis. The analysis is performed using an iCycler instrument (Biorad) and appropriate primers by means of standard methodology (e.g., Schwab D A et al. Life Sciences 66:1683-94(2000)). The amounts of mRNA are normalized to an internal control, typically, cyclophilin.
On the technique in general: Quantitative PCR measures a nucleic acid by following its amplification.

For `Cc1cc(OC[P@@]2(=O)OCC[C@@H](c3cccc(Cl)c3)O2)cc(C)c1Cc1ccc(O)c(C(C)C)c1` [Compound cis-13-1], the “Liver Trigs” value is recorded as 87 ± 6 mg/g in data set [1] (3 mg/kg/d orally), 66 ± 10 mg/g in data set [1] (10 mg/kg/d orally) and 59 ± 6 mg/g in [1] (30 mg/kg/d orally). In [1] (cis-13-1 oral 3, 10, 30 mg/kg/d, T3 100 nmole/kg/d s.c.), the “Effect on liver (hepatic) triglyceride content, in words” value was “decreased hepatic triglyceride content at 10 and 30 mg/kg/d”. The “EFP weight” value worked out at 4.4 ± 0.1 g in [2] (3 mg/kg/d orally), 4.7 ± 0.1 g in [2] (10 mg/kg/d orally) and 4.4 ± 0.1 g in data set [2] (30 mg/kg/d orally). The “Effect on epididymal fat pad (EFP) weight, in words” value in data set [2] (cis-13-1 oral, T3 100 nmole/kg/d s.c.) is “did not decrease epididymal fat pad (EFP) weight; also recorded: no effect on epididymal fat pad weight”. In addition, in [3], the “Decrease in ALT levels” value is greater than 50%. Also, in data set [4], the “Effect on hepatic steatosis measured chemically and histologically, in words” value is “decreased hepatic steatosis”. Further, the entries for the “Effect on hepatic steatosis (visual, H&E), in words” value in data set [5] and in data set [8] were “visually decreased hepatic steatosis compared to control” and “decreased hepatic steatosis”, respectively. Also, the “Effect on TSH, in words” value in data set [6] and in [10] was “No significant decreases in TSH” each time. The “Heart rates and other cardiovascular parameters, change from vehicle, in words” value in data set [7] was “no significant changes from vehicle in any parameter”. Also, in data set [9], the “Ultrastructure of mitochondria, in words” value is “no abnormalities in the ultrastructure of mitochondria”. The “Change in heart rate, in words” value in [11] is reported as “no significant change in heart rate”. Further, the “Increase in CPT-1 expression” value in data set [12] is given as 3.5 fold.

For the origin of these results see patent US10925885B2, “Thyromimetics for the treatment of fatty liver diseases” (Metabasis Therapeutics, Inc., priority 2005, dated 2021).
